Experimental data as given in patent publication US8835617B2, “Polynucleotides encoding a human TRIM-Cyp fusion polypeptide, compositions thereof, and methods of using same” (priority 2008, dated 2014).
“And” between values parts separate entries of the source, which are not always exact repeats. Equal values may be shown once.

Experiments:
[1] = tested on: HIV-1; conditions: U937, CEM-SS, SUP-T1, H9, HUH-7, CRFK, 293T
Source text: Since the objective was to engineer a fully human HIV-1 restriction factor, hCypA was the fused at 10 different positions along the length of hT5α (FIG. 44A).

[2] = tested on: HIV-1NL4-3; assay: hCD4+-Rag2-/-γc-/- mice infected with HIV-1 four to five days after adoptive transfer; format: in vivo
Source text: Age-matched, 6-10 week-old Rag2^−/−γc^−/− mice were conditioned with clodronate and sublethal irradiation (van Rijn et al., 2003), and injected intraperitoneally with 2.5×10^6 transduced CD4^+ T cells (FIG. 68A,B).
Rag2^−/−γc^−/− mice on a BALB/c background (provided by M. Ito; Central Institute for Experimental Animals, Kawasaki, Japan) were bred and maintained under specific pathogen-free conditions in accordance with the guidelines of the animal facility at the Institute for Research in Biomedicine. CL2 MBP (clodronate) was from Roche Diagnostics (Mannheim, Germany). Preparation of liposomes containing CL2 MBP was done as described previously (Van Rooijen and Sanders, 1994). 6-10 week-old mice received 100 ul of clodronate liposomes intraperitoneally (i.p.) 24 hours prior to irradiation using a single sublethal dose of 4.0 Gray (Gy) from a Cesium 137 source (Biobeam 8000, STS GmbH, Braunschweig, Germany) at 3.75 Gy/min. […] CD4^+ T cell engraftment and maintenance in mice was measured by flow cytometry. To obtain peripheral blood cells and plasma, mice were bled from the retro-orbital venous sinus under anesthesia and red blood cells were lysed. When sacrificed, single cell suspensions from organs were prepared. For FACS analysis monoclonal antibodies against the following antigens were used: CD3 (UCHT1), CD4 (13B8.2), CD8 (B9.11), p24 (clone KC57) (all Immunotech/Beckman Coulter, Marseille, France), CD45 (HI30) (Caltag, Burlingame, Calif.). Intracellular staining for p24 was performed on single cell suspensions from mesenteric lymph nodes and thymus following staining with anti-CD3 antibody. Cells were washed, permeabilized, and fixed by treatment with BD Cytofix/Cytoperm (BD Pharmingen) and stained with anti-p24 antibody in BD Permwash solution (BD Pharmingen) following the manufacturer's instructions. Plasma HIV RNA concentrations were determined by Cobas Amplicor RT-PCR assay (Roche Diagnostics, Basel, Switzerland). Immunohistochemical stainings were performed as previously described (Baenziger et al., 2006). To assess nonspecific binding, tissue from untransplanted and uninfected transplanted mice was stained as controls.
Rag2^−/−γc^−/− mice on a BALB/c background (provided by M. Ito; Central Institute for Experimental Animals, Kawasaki, Japan) were bred and maintained under specific pathogen-free conditions in accordance with the guidelines of the animal facility at the Institute for Research in Biomedicine (Bellinzona) and the Swiss Federal Veterinary Office (Bern). Mouse experiments were reviewed and approved by the Veterinary Commission of the State of Ticino (Bellinzona, Switzerland). CL2 MBP (clodronate) was from Roche Diagnostics (Mannheim, Germany). Preparation of liposomes containing CL2 MBP was done as described previously (68). 6-10 week-old mice received 100 ul of clodronate liposomes intraperitoneally (i.p.) 24 hours prior to irradiation using a single sublethal dose of 4.0 Gray (Gy) from a Cesium 137 source (Biobeam 8000, STS GmbH, Braunschweig, Germany) at 3.75 Gy/min.

hT5Cyp: human TRIM5α fused at serine 322 to human cyclophilin A, SEQ ID NO:12
HIV-1 restriction in further cell lines [1]: restricted HIV-1 | reduction in mean viral load vs hT5CypH126Q ([2]; Example 4, n=5 and n=4): 22 fold | mean peripheral blood CD45^+ cells ([2]; four weeks post-infection): 6.7% | percentage CD45^+ cells higher than hT5CypH126Q ([2]; four weeks post-infection): 15 fold | Viral load ([2]; individual mice, week 2, listed as wt): 103208 copies RNA/ml and 46007 copies RNA/ml and 43551 copies RNA/ml and 251320 copies RNA/ml and 66416 copies RNA/ml and 358800 copies RNA/ml and 566835 copies RNA/ml and 3811676 copies RNA/ml and 492800 copies RNA/ml and 27826 copies RNA/ml | Peripheral Blood (2 wks. postinfection) CD4 ([2]; individual mice, listed as wt): 1 percentage of total nucleated cells and 0.44 percentage of total nucleated cells and 0.33 percentage of total nucleated cells and 1.56 percentage of total nucleated cells and 2.7 percentage of total nucleated cells and 7.7 percentage of total nucleated cells and 15.1 percentage of total nucleated cells and 28.3 percentage of total nucleated cells and 1.89 percentage of total nucleated cells and 1.1 percentage of total nucleated cells | Peripheral Blood (2 wks. postinfection) CD45 ([2]; individual mice, listed as wt): 1.08 percentage of nucleated cells and 0.47 percentage of nucleated cells and 0.24 percentage of nucleated cells and 1.64 percentage of nucleated cells and 2.75 percentage of nucleated cells and 7.86 percentage of nucleated cells and 15.6 percentage of nucleated cells and 28.9 percentage of nucleated cells and 2.12 percentage of nucleated cells and 1.16 percentage of nucleated cells | Viral load (Corrected for CD4 count) ([2]; individual mice, listed as wt): 101231 and 104916 and 192227 and 159325 and 24321 and 47206 and 37382 and 134446 and 260305 and 25410 | mean peripheral blood CD4^+ cells ([2]; two weeks post-infection): 6% | percentage CD4^+ cells higher than hT5CypH126Q ([2]; two weeks post-infection): 34 fold
